Molecular target: DNA polymerase beta (Homo sapiens, UniProt P06746)
Test: Inhibition of DNA polymerase beta lyase activity by deoxyribose phosphate excision assay

## CC[C@H](CC[C@@H](C)[C@H]1CC[C@H]2[C@@H]3CC=C4C[C@@H](O)CC[C@]4(C)[C@H]3CC[C@]12C)C(C)C [BETA-SITOSTEROL]
  IC50: 26.3 µM

## CC1(C)CC[C@]2(C(=O)O)CC[C@]3(C)C(=CC[C@@H]4[C@@]5(C)CC[C@H](O)C(C)(C)[C@@H]5CC[C@]43C)[C@@H]2C1 [OLEANOLIC_ACID]
  IC50: 8.8 µM

## CC[C@H](/C=C/[C@@H](C)[C@H]1CC[C@H]2[C@@H]3CC=C4C[C@@H](O)CC[C@]4(C)[C@H]3CC[C@]12C)C(C)C [STIGMASTEROL]
  IC50: 43.4 µM

## CC(=O)OC[C@@]1(C)[C@@H]2CC[C@]3(C)[C@H](CC=C4[C@@H]5CC(C)(C)CC[C@]5(C(=O)O)[C@@H](OC(C)=O)C[C@]43C)[C@@]2(C)CC[C@@H]1OC(C)=O
  IC50: 13 µM
